According to patent US12121522B2, “Methods of treating cancer with an mTOR inhibitor” (Revolution Medicines, Inc., priority 2022, dated 2024):

Tests used:
[1] = Clinical plasma PK, study RMC-5552-001; assay type: in vivo, human
Description: The plasma PK of RMC-5552 in subjects was characterized after single- and repeat-dose administration via IV infusion. […] Sparse PK samples were collected on other visit days as indicated in the clinical study protocol, including End of Infusion (EOI) samples on Cycle 1 Day 8 (C1D8), Cycle 2 Day 1 (C2D1), Cycle 3 Day 1 (C3D1), and Cycle 4 Day 1 ([…]) to approximate maximum concentration (Cmax). The plasma PK of RMC-5552 in subjects was characterized after single- and repeat dose administration via intravenous (IV) infusion. […] Sparse PK samples were collected on other visit days as indicated in the clinical study protocol, including EOI samples on C1D8, C2D1, C3D1, and […] to approximate Cmax. […] AUC0-last value was not calculated on C1D8, C2D1, C3D1, or […] due to limited PK time points (pre-dose and EOI).

mucositis/stomatitis = test: Mouthwash prophylaxis of mucositis in patients on RMC-5552; assay type: in vivo, human; details: RMC-5552 8 to 12 mg IV weekly; without TM N=20, with TM N=7
Method: Table 9 presents data from all patients (N=27) treated either with dexamethasone mouthwash alone, or dexamethasone mouthwash plus tacrolimus mouthwash at 8 mg (N=16), 10 mg (N=8), and 12 mg (N=3) IV QW. Median time on treatment (min, max) was 2.6 months for patients treated at 8 mg IV QW with dexamethasone mouthwash alone (N=13), 1.2 months for patients treated at 8 mg IV QW with dexamethasone mouthwash plus tacrolimus mouthwash (N=3), 0.9 months for patients treated at 10 mg IV QW with dexamethasone mouthwash alone (N=5), 2.0 months for patients treated at 10 mg IV QW with dexamethasone mouthwash plus tacrolimus mouthwash (N=3), 9.1 months for patients treated at 12 mg IV QW with dexamethasone mouthwash alone (N=2), and 0.4 months for patients treated at 12 mg IV QW with dexamethasone mouthwash plus tacrolimus mouthwash (N=1). […] Among all dose levels, the frequency of Grade 3 or worse events, frequency and severity of mucositis, and frequency of AEs leading to dose modification were lower in those patients treated with tacrolimus mouthwash.
Subjects received dexamethasone alone or dexamethasone plus tacrolimus mouthwash(es). […] At baseline (C1D1 predose), subjects rinse with the mouthwash(es) once at least 15 minutes prior to the first dose of study intervention. […]

CO[C@H]1C[C@@H]2CC[C@@H](C)[C@@](O)(O2)C(=O)C(=O)N2CCCC[C@H]2C(=O)O[C@H]([C@H](C)C[C@@H]2CC[C@@H](OC(=O)NCCOCCOCCOCCOCCOCCOCCOCCOCCC(=O)N3CCc4cc(Cn5nc(-c6ccc7oc(N)nc7c6)c6c(N)ncnc65)ccc4C3)[C@H](OC)C2)C[C@@H](O)[C@H](C)/C=C(\C)[C@@H](O)[C@@H](OC)C(=O)[C@H](C)C[C@H](C)/C=C/C=C/C=C/1C [RMC-5552]
Mean Accumulation Ratio (AUC0-last on D15/D1) ([1]; 1.6 mg): 2.4
Cmax ([1]; 1.6 mg 1-h IV inf, C1D1): 21.6 nM
Mean AUC0-last ([1]; 1.6 mg, C1D1): 0.0297 µM·h
Mean Dose Normalized AUC0-last ([1]; 1.6 mg, C1D1): 18.6 nM·h/mg
Mean Unbound AUC0-last ([1]; 1.6 mg, C1D1): 0.0017 µM·h
Mean Unbound Cmax ([1]; 1.6 mg, C1D1): 1.2 nM
Cmax ([1]; 1.6 mg, C1D15): 35.3 nM
Mean AUC0-last ([1]; 1.6 mg, C1D15): 0.0555 µM·h
Mean Dose Normalized AUC0-last ([1]; 1.6 mg, C1D15): 34.7 nM·h/mg
Mean Unbound AUC0-last ([1]; 1.6 mg, C1D15): 0.0032 µM·h
Mean Unbound Cmax ([1]; 1.6 mg, C1D15): 2.0 nM
Cmax ([1]; 1.6 mg, C2D1 (EOI)): 24.7 nM
Mean Unbound Cmax ([1]; 1.6 mg, C2D1 (EOI)): 1.4 nM
Mean Accumulation Ratio (AUC0-last on D15/D1) ([1]; 3 mg): 2.1
Cmax ([1]; 3 mg 1-h IV inf, C1D1): 32 nM
Mean AUC0-last ([1]; 3 mg, C1D1): 0.0439 µM·h
Mean Dose Normalized AUC0-last ([1]; 3 mg, C1D1): 14.6 nM·h/mg
Mean Unbound AUC0-last ([1]; 3 mg, C1D1): 0.0025 µM·h
Mean Unbound Cmax ([1]; 3 mg, C1D1): 1.8 nM
Cmax ([1]; 3 mg, C1D15): 67.5 nM
Mean AUC0-last ([1]; 3 mg, C1D15): 0.0875 µM·h
Mean Dose Normalized AUC0-last ([1]; 3 mg, C1D15): 29.2 nM·h/mg
Mean Unbound AUC0-last ([1]; 3 mg, C1D15): 0.005 µM·h
Mean Unbound Cmax ([1]; 3 mg, C1D15): 3.8 nM
Cmax ([1]; 3 mg, C2D1 (EOI)): 74.2 nM
Mean Unbound Cmax ([1]; 3 mg, C2D1 (EOI)): 4.2 nM
Mean Accumulation Ratio (AUC0-last on D15/D1) ([1]; 6 mg): 1.6
Cmax ([1]; 6 mg 1-h IV inf, C1D1): 101 nM
Mean AUC0-last ([1]; 6 mg, C1D1): 0.137 µM·h
Mean Dose Normalized AUC0-last ([1]; 6 mg, C1D1): 22.1 nM·h/mg
Mean Unbound AUC0-last ([1]; 6 mg, C1D1): 0.0078 µM·h
Mean Unbound Cmax ([1]; 6 mg, C1D1): 5.8 nM
Mean t1/2 ([1]; 6 mg, C1D1): 8.1 h
Unbound AUC0-last (Table 3) ([1]; 6 mg, C1D1): 0.0078 µM·h
Unbound Cmax (Table 3) ([1]; 6 mg, C1D1): 5.6 nM
Cmax ([1]; 6 mg, C1D8 (EOI)): 150 nM
Mean Unbound Cmax ([1]; 6 mg, C1D8 (EOI)): 8.5 nM
Cmax ([1]; 6 mg, C1D15): 155 nM
Mean AUC0-last ([1]; 6 mg, C1D15): 0.219 µM·h
Mean Dose Normalized AUC0-last ([1]; 6 mg, C1D15): 36.6 nM·h/mg
Mean Unbound AUC0-last ([1]; 6 mg, C1D15): 0.0125 µM·h
Mean Unbound Cmax ([1]; 6 mg, C1D15): 8.9 nM
Mean t1/2 ([1]; 6 mg, C1D15): 8.2 h
Unbound AUC0-last (Table 3) ([1]; 6 mg, C1D15): 0.0121 µM·h
Unbound Cmax (Table 3) ([1]; 6 mg, C1D15): 8.7 nM
Cmax ([1]; 6 mg, C2D1 (EOI)): 159 nM
Mean Unbound Cmax ([1]; 6 mg, C2D1 (EOI)): 9.1 nM
Cmax ([1]; 6 mg, C3D1 (EOI)): 187 nM
Mean Unbound Cmax ([1]; 6 mg, C3D1 (EOI)): 10.7 nM
Cmax ([1]; 6 mg, C4D1 (EOI)): 220 nM
Mean Unbound Cmax ([1]; 6 mg, C4D1 (EOI)): 12.5 nM
Mean Accumulation Ratio (AUC0-last on D15/D1) ([1]; 8 mg): 2.6
Cmax ([1]; 8 mg 1-h IV inf, C1D1): 152 nM
Mean AUC0-last ([1]; 8 mg, C1D1): 0.219 µM·h
Mean Dose Normalized AUC0-last ([1]; 8 mg, C1D1): 27.4 nM·h/mg
Mean Unbound AUC0-last ([1]; 8 mg, C1D1): 0.0125 µM·h
Mean Unbound Cmax ([1]; 8 mg, C1D1): 8.6 nM
Mean t1/2 ([1]; 8 mg, C1D1): 11.4 h
Unbound AUC0-last (Table 3) ([1]; 8 mg, C1D1): 0.0117 µM·h
Unbound Cmax (Table 3) ([1]; 8 mg, C1D1): 8.6 nM
Cmax ([1]; 8 mg, C1D8 (EOI)): 242 nM
Mean Unbound Cmax ([1]; 8 mg, C1D8 (EOI)): 13.8 nM
Cmax ([1]; 8 mg, C1D15): 340 nM
Mean AUC0-last ([1]; 8 mg, C1D15): 0.466 µM·h
Mean Dose Normalized AUC0-last ([1]; 8 mg, C1D15): 58.3 nM·h/mg
Mean Unbound AUC0-last ([1]; 8 mg, C1D15): 0.0266 µM·h
Mean Unbound Cmax ([1]; 8 mg, C1D15): 19.4 nM
Mean t1/2 ([1]; 8 mg, C1D15): 10.6 h
Unbound AUC0-last (Table 3) ([1]; 8 mg, C1D15): 0.0266 µM·h
Unbound Cmax (Table 3) ([1]; 8 mg, C1D15): 20.1 nM
Cmax ([1]; 8 mg, C2D1 (EOI)): 282 nM
Mean Unbound Cmax ([1]; 8 mg, C2D1 (EOI)): 16.1 nM
Cmax ([1]; 8 mg, C3D1 (EOI)): 295 nM
Mean Unbound Cmax ([1]; 8 mg, C3D1 (EOI)): 16.8 nM
Cmax ([1]; 8 mg, C4D1 (EOI)): 208 nM
Mean Unbound Cmax ([1]; 8 mg, C4D1 (EOI)): 11.8 nM
Cmax ([1]; 10 mg 2-h IV inf, C1D1): 115 nM
Mean Accumulation Ratio (AUC0-last on D15/D1) ([1]; 10 mg 2-h inf): 1.7
Mean AUC0-last ([1]; 10 mg 2-h inf, C1D1): 0.366 µM·h
Mean Dose Normalized AUC0-last ([1]; 10 mg 2-h inf, C1D1): 36.6 nM·h/mg
Mean Unbound AUC0-last ([1]; 10 mg 2-h inf, C1D1): 0.0209 µM·h
Mean Unbound Cmax ([1]; 10 mg 2-h inf, C1D1): 6.6 nM
Mean t1/2 ([1]; 10 mg 2-h inf, C1D1): 13.5 h
Cmax ([1]; 10 mg 2-h inf, C1D15): 181 nM
Mean AUC0-last ([1]; 10 mg 2-h inf, C1D15): 0.527 µM·h
Mean Dose Normalized AUC0-last ([1]; 10 mg 2-h inf, C1D15): 52.7 nM·h/mg
Mean Unbound AUC0-last ([1]; 10 mg 2-h inf, C1D15): 0.03 µM·h
Mean Unbound Cmax ([1]; 10 mg 2-h inf, C1D15): 10.3 nM
Mean t1/2 ([1]; 10 mg 2-h inf, C1D15): 4.2 h
Cmax ([1]; 10 mg 2-h inf, C2D1): 290 nM
Mean Unbound Cmax ([1]; 10 mg 2-h inf, C2D1): 16.5 nM
Unbound AUC0-last (Table 3) ([1]; 10 mg, C1D1, N=2): 0.0142 µM·h
Unbound Cmax (Table 3) ([1]; 10 mg, C1D1, N=2): 11 nM
Cmax ([1]; 12 mg 1-h IV inf, C1D1): 396 nM
Mean AUC0-last ([1]; 12 mg, C1D1): 0.49 µM·h
Mean Dose Normalized AUC0-last ([1]; 12 mg, C1D1): 40.9 nM·h/mg
Mean Unbound AUC0-last ([1]; 12 mg, C1D1): 0.028 µM·h
Mean Unbound Cmax ([1]; 12 mg, C1D1): 22.6 nM
Mean t1/2 ([1]; 12 mg, C1D1): 8.3 h
Unbound AUC0-last (Table 3) ([1]; 12 mg, C1D1, N=2): 0.0282 µM·h
Unbound Cmax (Table 3) ([1]; 12 mg, C1D1, N=2): 22.6 nM
exposure (Cmax and AUC0-last) on C1D15 relative to C1D1 ([1]; weekly repeat dosing, 1.6 to 8 mg): about 2 fold
rate of grade 3 mucositis/stomatitis (mucositis/stomatitis): 15%
rate of mucositis/stomatitis (mucositis/stomatitis): 75%
